Laboratory results published in patent US9199940B2, “Crystalline forms and processes for the preparation of phenyl-pyrazoles useful as modulators of the 5-HT2A serotonin receptor” (Arena Pharmaceuticals, Inc., priority 2006, dated 2015).

Assay: dynamic vapor sorption (DVS) scan of crystalline forms
Assay type: physicochemical
Conditions: up to 95% relative humidity
Excerpt: FIG. 4 depicts a dynamic vapor sorption (DVS) scan for crystalline Form I of Compound 7 of the invention (VTI dynamic vapor sorption analyzer).
FIG. 8 depicts a dynamic vapor sorption (DVS) scan for crystalline Form I Compound 9 of the invention (VTI dynamic vapor sorption analyzer).

DVS hygroscopicity: FIG. 4: Non-hygroscopic;
Compound: COc1cccc(C(=O)Nc2ccc(OCCN3CCOCC3)c(-c3ccnn3C)c2)c1 [Compound 7 Form I, 4-(2-(4-(3-methoxybenzamido)-2-(1-methyl-1H-pyrazol-5-yl)phenoxy)ethyl)morpholin-4-ium chloride]
